The NIST ThermoML archive (doi:10.1007/s10765-007-0223-x)

Experiment: xn = mol fraction of the nth substance listed
Settings: 101 kPa, Liquid; for speed of sound: Single path-length method

COC(C)(C)C [2-methoxy-2-methylpropane] + CC(C)(C)O
Settings | mass density [kg/m3] | speed of sound [m/s]
301.65 K, x1 = 0.049 | 775.452 | 1105.4
301.65 K, x1 = 0.1 | 772.914 | 1100.7
301.65 K, x1 = 0.215 | 767.025 | 1089.3
301.65 K, x1 = 0.314 | 761.986 | 1079.7
301.65 K, x1 = 0.4 | 757.94 | 1072
301.65 K, x1 = 0.498 | 753.459 | 1063.6
301.65 K, x1 = 0.597 | 749.177 | 1055.5
301.65 K, x1 = 0.707 | 744.495 | 1047.6
301.65 K, x1 = 0.799 | 740.646 | 1040.8
301.65 K, x1 = 0.9 | 736.522 | 1033.1
301.65 K, x1 = 0.951 | 734.553 | 1028.8
301.65 K, x1 = 1 | 732.643 | 1024.3
303.15 K, x1 = 0.049 | 772.916 | 1094.7
303.15 K, x1 = 0.1 | 770.395 | 1090.2
303.15 K, x1 = 0.215 | 764.529 | 1079.1
303.15 K, x1 = 0.314 | 759.479 | 1069.7
303.15 K, x1 = 0.4 | 755.424 | 1061.9
303.15 K, x1 = 0.498 | 750.928 | 1053.1
303.15 K, x1 = 0.597 | 746.615 | 1045
303.15 K, x1 = 0.707 | 741.905 | 1036.7
303.15 K, x1 = 0.799 | 738.033 | 1029.9
303.15 K, x1 = 0.9 | 733.889 | 1021.9
303.15 K, x1 = 0.951 | 731.913 | 1017.6
303.15 K, x1 = 1 | 729.99 | 1012.8
305.65 K, x1 = 0.049 | 770.344 | 1084
305.65 K, x1 = 0.1 | 767.841 | 1079.7
305.65 K, x1 = 0.215 | 762.002 | 1068.7
305.65 K, x1 = 0.314 | 756.946 | 1059.4
305.65 K, x1 = 0.4 | 752.889 | 1051.7
305.65 K, x1 = 0.498 | 748.373 | 1042.6
305.65 K, x1 = 0.597 | 744.023 | 1034.3
305.65 K, x1 = 0.707 | 739.304 | 1025.9
305.65 K, x1 = 0.799 | 735.393 | 1018.7
305.65 K, x1 = 0.9 | 731.231 | 1010.6
305.65 K, x1 = 0.951 | 729.253 | 1006.3
305.65 K, x1 = 1 | 727.325 | 1001.4
308.15 K, x1 = 0.049 | 767.747 | 1073.2
308.15 K, x1 = 0.1 | 765.265 | 1069.1
308.15 K, x1 = 0.215 | 759.448 | 1058.2
308.15 K, x1 = 0.314 | 754.398 | 1049.1
308.15 K, x1 = 0.4 | 750.325 | 1041.2
308.15 K, x1 = 0.498 | 745.794 | 1032
308.15 K, x1 = 0.597 | 741.414 | 1023.5
308.15 K, x1 = 0.707 | 736.686 | 1015.2
308.15 K, x1 = 0.799 | 732.737 | 1007.6
308.15 K, x1 = 0.9 | 728.559 | 999.39
308.15 K, x1 = 0.951 | 726.577 | 994.94
308.15 K, x1 = 1 | 724.645 | 989.9
310.65 K, x1 = 0.049 | 765.13 | 1062.6
310.65 K, x1 = 0.1 | 762.685 | 1058.9
310.65 K, x1 = 0.215 | 756.88 | 1047.9
310.65 K, x1 = 0.314 | 751.817 | 1038.6
310.65 K, x1 = 0.4 | 747.731 | 1030.6
310.65 K, x1 = 0.498 | 743.186 | 1021.4
310.65 K, x1 = 0.597 | 738.784 | 1012.8
310.65 K, x1 = 0.707 | 734.036 | 1004.3
310.65 K, x1 = 0.799 | 730.062 | 996.52
310.65 K, x1 = 0.9 | 725.873 | 988.12
310.65 K, x1 = 0.951 | 723.884 | 983.57
310.65 K, x1 = 1 | 721.953 | 978.47
313.15 K, x1 = 0.049 | 762.492 | 1052
313.15 K, x1 = 0.1 | 760.064 | 1048.4
313.15 K, x1 = 0.215 | 754.27 | 1037.4
313.15 K, x1 = 0.314 | 749.212 | 1028.2
313.15 K, x1 = 0.4 | 745.126 | 1020.2
313.15 K, x1 = 0.498 | 740.567 | 1010.9
313.15 K, x1 = 0.597 | 736.13 | 1002
313.15 K, x1 = 0.707 | 731.36 | 993.34
313.15 K, x1 = 0.799 | 727.372 | 985.44
313.15 K, x1 = 0.9 | 723.168 | 976.81
313.15 K, x1 = 0.951 | 721.205 | 972.48
313.15 K, x1 = 1 | 719.245 | 967.03
315.65 K, x1 = 0.049 | 759.831 | 1041.5
315.65 K, x1 = 0.1 | 757.407 | 1037.8
315.65 K, x1 = 0.215 | 751.633 | 1026.8
315.65 K, x1 = 0.314 | 746.577 | 1017.7
315.65 K, x1 = 0.4 | 742.483 | 1009.7
315.65 K, x1 = 0.498 | 737.91 | 1000.2
315.65 K, x1 = 0.597 | 733.459 | 991.47
315.65 K, x1 = 0.707 | 728.662 | 982.37
315.65 K, x1 = 0.799 | 724.66 | 974.33
315.65 K, x1 = 0.9 | 720.449 | 965.56
315.65 K, x1 = 0.951 | 718.495 | 961.27
315.65 K, x1 = 1 | 716.525 | 955.73
318.15 K, x1 = 0.049 | 757.138 | 1031
318.15 K, x1 = 0.1 | 754.729 | 1027.3
318.15 K, x1 = 0.215 | 748.972 | 1016.3
318.15 K, x1 = 0.314 | 743.917 | 1007.1
318.15 K, x1 = 0.4 | 739.814 | 999.06
318.15 K, x1 = 0.498 | 735.227 | 989.54
318.15 K, x1 = 0.597 | 730.762 | 980.67
318.15 K, x1 = 0.707 | 725.943 | 971.38
318.15 K, x1 = 0.799 | 721.933 | 963.24
318.15 K, x1 = 0.9 | 717.738 | 954.55
318.15 K, x1 = 0.951 | 715.752 | 949.91
318.15 K, x1 = 1 | 713.786 | 944.34
320.65 K, x1 = 0.049 | 754.421 | 1020.5
320.65 K, x1 = 0.1 | 752.024 | 1016.8
320.65 K, x1 = 0.215 | 746.283 | 1005.9
320.65 K, x1 = 0.314 | 741.23 | 996.62
320.65 K, x1 = 0.4 | 737.119 | 988.47
320.65 K, x1 = 0.498 | 732.517 | 978.82
320.65 K, x1 = 0.597 | 728.042 | 969.8
320.65 K, x1 = 0.707 | 723.201 | 960.4
320.65 K, x1 = 0.799 | 719.199 | 952.31
320.65 K, x1 = 0.9 | 714.978 | 943.3
320.65 K, x1 = 0.951 | 712.991 | 938.58
320.65 K, x1 = 1 | 711.028 | 933.01
323.15 K, x1 = 0.049 | 751.68 | 1010
323.15 K, x1 = 0.1 | 749.295 | 1006.3
323.15 K, x1 = 0.215 | 743.567 | 995.37
323.15 K, x1 = 0.314 | 738.52 | 986.19
323.15 K, x1 = 0.4 | 734.4 | 977.86
323.15 K, x1 = 0.498 | 729.786 | 968.08
323.15 K, x1 = 0.597 | 725.316 | 958.97
323.15 K, x1 = 0.707 | 720.436 | 949.42
323.15 K, x1 = 0.799 | 716.426 | 941.22
323.15 K, x1 = 0.9 | 712.195 | 931.99
323.15 K, x1 = 0.951 | 710.215 | 927.25
323.15 K, x1 = 1 | 708.28 | 921.93
